The test system of assay [1] is spontaneously hypertensive rats (SHR). Put plainly: Protection of renal function in spontaneously hypertensive rats (SCr, SUA, BUN). It is filed as in vivo, rat. Particulars: SHR serum, AC: captopril 10 mg/kg by gavage once a day for 4 weeks. Here is the method: (§1) Spontaneously hypertensive rats were purchased from Beijing Weitong Lihua Experimental Animal Technology Co., Ltd.
Forty male spontaneously hypertensive rats (SHR), aged about 12 weeks and weighing about 270 G, were adaptively fed for one week. […] The rats in the AC group were given captopril 10 mg/kg by gavage, At the same time, the MC group was given the same volume of distilled water. The drug was administered once a day for 4 weeks. SCr, SUA and BUN were measured, and the data were analyzed by SPSS software.

The test system is the same in assay [2]. Briefly: Anti-inflammatory test after administration in spontaneously hypertensive rats (serum IL-8, TNF-α, hs-CRP). It is filed as in vivo, rat. The procedure:
Anti-inflammatory test after administration in spontaneously hypertensive rats is as follows.
as §1
Forty male spontaneously hypertensive rats (SHR), aged about 12 weeks and weighing about 270 G, were adaptively fed for one week. […] The rats in the AC group were given captopril 10 mg/kg by gavage, at the same time, the MC group was given the same volume of distilled water. The drug was administered once a day for 4 weeks. Serum IL-8, TNF-α and hs-CRP were measured, and the data were analyzed by SPSS software.

[3] abbreviates: AC: captopril 10 mg/kg by gavage once a day for 4 weeks.

The structures appear in SMILES notation.

In assay [1], `C[C@H](CS)C(=O)N1CCC[C@H]1C(=O)O` [captopril] returned a BUN of 10.56 ± 3.17 mmol/L, an SCr of 421.50 ± 101.20 µmol/L and an SUA of 211.60 ± 39.89 mg/L. In assay [2] (setting [3]), this compound returned a TNF-α of 87.41 ± 19.19 pg/mL and a hs-CRP of 1.53 ± 0.41 µg/L. For the same compound, in assay [2] (positive drug group (captopril 10 mg/kg), 4 weeks), the “serum IL-8 level” value worked out at 122 ± 12.15 pg/mL.
